Data: paper PMC11466185, “Mechanisms and efficacy of small molecule latency-promoting agents to inhibit HIV reactivation ex vivo” (JCI Insight, 2024)
Entries after “also recorded” stand apart in the source; their conditions may differ.

Tested on: PolyA HIV RNA in the supernatant
Test: Supernatant viral RNA (polyadenylated HIV RNA, RT-ddPCR) at day 6 after T cell activation
Type: cell-based
Settings: for Polyadenylated HIV RNA in supernatant (Fig 5, Fig S6B) / Polyadenylated HIV RNA in supernatant (Fig 5): day 6; for Viral RNA in supernatant (PolyA HIV RNA), median relative to activated DMSO: day 6 after anti-CD3/CD28 activation, Figure 5
Protocol: PBMCs were cultured in the presence of individual drugs in DMSO or DMSO alone as control, activated (anti-CD3/CD28), and assessed for levels of PolyA HIV RNA in the supernatant at day 6.
Each drug was tested in PBMCs from 6 ART-suppressed study participants (except for triptolide, n = 5). PBMCs were aliquoted into wells at 6 × 10^6 cells/well. After activation, the cells were cultured with antiretrovirals in the presence of individual drugs in DMSO or DMSO alone as control. All conditions were tested in the presence of CD3/28 T cell–activating beads, except for the unactivated DMSO condition. After 6 days, RNA was extracted from the culture supernatant. Polyadenylated HIV RNA in the supernatant was quantified by RT-ddPCR, expressed as copies/mL, and then normalized to the levels of the activated DMSO (% of activated DMSO). Medians and IQR are presented, as well as the individual values per study participant in different colors. Comparisons were performed using Wilcoxon’s signed-rank test.
For quantification of cell-associated HIV transcripts, PBMCs were harvested either after 24 hours or after 6 days. The cell viabilities were measured by trypan blue staining; then the cells were pelleted by centrifuging at 300g for 6 minutes and stored at –80°C. For quantification of virion-associated HIV RNA, cell culture supernatant was collected from 6 × 10^6 PBMCs that were treated and activated for 6 days as described above. Residual cells and cellular debris were subsequently removed from the supernatant by differential centrifugation (300g for 6 minutes, then 20,000g for 10 minutes), and the supernatant was stored at –80°C.
Total cellular DNA and RNA were extracted in parallel using Trireagent (Molecular Research Center) according to the manufacturer’s instructions, except for study participants 2147 and 2461 (Figure 4), for whom DNA and RNA were extracted using the QIAGEN AllPrep DNA/RNA/miRNA Universal Kit with on-column DNase I treatment of the RNA and the manufacturer’s modification to enhance recovery of short transcripts. RNA and DNA concentrations were measured using UV spectrophotometry (NanoDrop One, Thermo Fisher Scientific). Total initiated HIV (TAR) transcripts were quantified by a 3-step polyadenylation RT-ddPCR as described previously ([8], [84]). HIV 5′ elongated (LLTR), midtranscribed (Pol), completed (PolyA), and multiply spliced (TatRev) transcripts were quantified by a 2-step RT-ddPCR as previously described ([8]). The levels of each HIV transcript were normalized to 1 μg of total cellular RNA and expressed as a percentage of the (activated) DMSO control. To quantify virion-associated RNA in supernatant, RNA was extracted from 400 μL supernatant using Trireagent-LS (Molecular Research Center) according to the manufacturer’s instructions. Levels of U3-polyadenylated HIV RNA were measured in the supernatant by RT-ddPCR, normalized to copies/mL, and expressed as a percentage of the activated DMSO. For measuring the HIV infection frequency at day 6, the HIV DNA U3-U5 LTR region was quantified by using ddPCR as described previously ([8]). HIV DNA copies were normalized to cell numbers according to the mass of DNA input per well (calculated from the DNA concentration and input volume) ([85]).

| Compound | Polyadenylated HIV RNA in supernatant (Fig 5, Fig S6B) (study participant 150b) | Polyadenylated HIV RNA in supernatant (Fig 5) (study participant 156) | Polyadenylated HIV RNA in supernatant (Fig 5) (study participant 163) | Polyadenylated HIV RNA in supernatant (Fig 5) (study participant 2027) | Polyadenylated HIV RNA in supernatant (Fig 5) (study participant 2147b) | Polyadenylated HIV RNA in supernatant (Fig 5) (study participant 2161) | Polyadenylated HIV RNA in supernatant (Fig 5) (study participant 2747) | Polyadenylated HIV RNA in supernatant (Fig 5) (study participant 2256) | Viral RNA in supernatant (PolyA HIV RNA), median relative to activated DMSO | Polyadenylated HIV RNA in supernatant (Fig 5, Fig S6B) (study participant 1713) | Polyadenylated HIV RNA in supernatant (Fig 5) (study participant 5557) | Polyadenylated HIV RNA in supernatant (Fig 5) (study participant 150a) | Polyadenylated HIV RNA in supernatant (Fig 5) (study participant 2750) |
| --- | --- | --- | --- | --- | --- | --- | --- | --- | --- | --- | --- | --- | --- |
| CCc1cnn2c(NCc3ccc[n+]([O-])c3)cc(N3CCCC[C@H]3CCO)nc12 [dinaciclib] | 11.52 % of activated DMSO | 0 % of activated DMSO | 133.94 % of activated DMSO | 0 % of activated DMSO | 0 % of activated DMSO | 4.65 % of activated DMSO | 23.64 % of activated DMSO |  |  |  |  |  |  |
| O=c1c(O)c(-c2ccc(O)c(O)c2)oc2cc(O)cc(O)c12 [quercetin] | 315.15 % of activated DMSO |  | 85.4 % of activated DMSO | 20.42 % of activated DMSO | 8.6 % of activated DMSO | 4.65 % of activated DMSO | 9.09 % of activated DMSO | 134.41 % of activated DMSO |  |  |  |  |  |
| mithramycin A | 2.42 % of activated DMSO |  |  |  | 0 % of activated DMSO |  |  | 2.15 % of activated DMSO | tended to reduce; also recorded: inhibited the production of viral RNA in supernatant in 5 out of 6 study participants | 2.06 % of activated DMSO | 0 % of activated DMSO |  |  |
| pladienolide B |  | 7.61 % of activated DMSO | 15.15 % of activated DMSO | 63.66 % of activated DMSO | 0 % of activated DMSO | 0 % of activated DMSO | 0 % of activated DMSO |  | 3.8% |  |  | 17.33 % of activated DMSO | 0 % of activated DMSO |
| CN1CC[C@H](c2c(O)cc(O)c3c(=O)cc(-c4ccccc4Cl)oc23)[C@H](O)C1 [alvocidib] | 81.21 % of activated DMSO |  |  | 504.5 % of activated DMSO | 0 % of activated DMSO | 41.86 % of activated DMSO |  | 81.72 % of activated DMSO |  |  | 155.63 % of activated DMSO |  |  |
| C=CCNC1=C2C[C@@H](C)C[C@H](OC)[C@H](O)[C@@H](C)/C=C(\C)[C@H](OC(N)=O)[C@@H](OC)/C=C\C=C(/C)C(=O)NC(=CC1=O)C2=O [tanespimycin] | 0 % of activated DMSO |  |  |  | 0 % of activated DMSO |  |  | 2.15 % of activated DMSO |  | 0 % of activated DMSO | 0 % of activated DMSO |  | 0 % of activated DMSO |
